# Results as given in patent US4824860A, “Treatment of Parkinsons disease” (priority 1987, dated 1989).
# What was measured:
# 5HT1 receptors = test: Receptor binding studies using rat brain: 5HT1
# dopamine D1 receptors = test: Receptor binding studies using rat brain: dopamine D1
# MPTP-treated marmoset = MPTP-treated marmoset model of anti-Parkinson activity (test 10); format: in vivo
# From the text: 10. MPTP-treated marmoset model. A test for anti-Parkinson activity.
# (i) Parkinsonism-like motor deficits (hypokinesia and bradykinesia) were induced in marmosets by the intranigral infusion of 1-methyl-4-phenyl-1,2,3,6-tetrahydropyridine (MPTP) for 13 days via an implanted injection unit and osmotic minipump (Test 10). […] Drug assessments were begun after 7-10 days of infusion.
# [1] = Mouse spontaneous locomotor activity measuring climbing frame behaviour (test 3); format: in vivo
# From the text: 3. Mouse spontaneous locomotor activity measuring climbing frame behaviour.
# [2] = Rat spontaneous locomotor activity using photocell cages: measurement of stereotypy (test 5); format: in vivo
# From the text: 5. Rat spontaneous locomotor activity using individual cages equipped with photocells: measurement of stereotypy.
# [3] = Anti-depressant activity in the mouse using the Porsolt test (test 8); format: in vivo; conditions: mice
# From the text: 8. Measurement of anti-depressant activity in the mouse using the `Porsolt Test`.
# [4] = Mouse spontaneous locomotor activity using individual cages equipped with photocells (test 1); format: in vivo; conditions: for dose profile of effect on locomotor activity: 'in these tests' (locomotor tests 1-3), inhibition at low, stimulation at high dose
# From the text: 1. Mouse spontaneous locomotor activity using individual cages equipped with photocells.
# [5] = Mouse spontaneous locomotor activity using treadwheels (test 2); format: in vivo
# From the text: 2. Mouse spontaneous locomotor activity using treadwheels.
# [6] = Measurement of stereotyped behaviour in the mouse (test 4); format: in vivo
# From the text: 4. Measurement of stereotyped behaviour in the mouse.
# [7] = Asymmetry and circling after unilateral administration into the extrapyramidal caudate-putamen (striatum) (test 7); format: in vivo, rat
# From the text: 7. Effect on observed locomotor activity following direct administration into the extrapyramidal caudate-putamen (striatum). A test for anti-Parkinsonism potential.
# [8] = Anxiolytic activity in the mouse using a black and white test box (test 9); format: in vivo
# From the text: 9. Anxiolytic activity in the mouse using a black and white test box.
# [9] = Hyperactivity following direct administration into the mesolimbic nucleus accumbens of the rat (test 6); format: in vivo
# From the text: 6. Measurement of hyperactivity following direct administration into the mesolimbic nucleus accumbens of the rat. An indicator of anti-depressant activity.
# Enhancement of locomotor activity by amphetamine and other dopamine agonists is difficult to measure because it is complicated by the development of stereotypies. […] Direct action of a compound to cause hyperactivity following administration into the mesolimbic nucleus accumbens is considered to be indicative of anti-depressant activity.
# [10] = 0.05 mg/kg s.c., mean n=4, P<0.05
# [11] = 0.05 mg/kg s.c., mean of responding animals only
# [12] = 0.1 mg/kg s.c., mean n=4, P<0.01
# [13] = 1.0 mg/kg s.c., mean n=4, P<0.01
# [14] = 10 μg injected directly into the mesolimbic nucleus accumbens
# [15] = 0.1-1 mg/kg i.p., separate study
structure (smiles),measurement,setting,value
CCCN1C[C@H](CSC)C[C@@H]2c3cccc4[nH]cc(c34)C[C@H]21 [pergolide],affinity for 5HT1 receptors,5HT1 receptors,showed affinity
same,affinity for dopamine D1 receptors,dopamine D1 receptors,bound to dopamine D1 receptors
"CCCN(CCC)CCc1cccc2c1CC(=O)N2.Cl [Compound A, 4-(2-di-n-propylaminoethyl)-2-(3H)-indolone hydrochloride]",% time in head movements,"MPTP-treated marmoset; 0.01 mg/kg s.c., mean n=4",26%
same,% time spent in LMA,"MPTP-treated marmoset; 0.01 mg/kg s.c., mean n=4",4%
same,LMA (% control),"MPTP-treated marmoset; 0.01 mg/kg s.c., mean n=4",26 % control
same,% time in head movements,MPTP-treated marmoset; [10],36%
same,% time spent in LMA,MPTP-treated marmoset; [10],12%
same,LMA (% control),MPTP-treated marmoset; [10],47 % control
same,% time in head movements,MPTP-treated marmoset; [11],80%
same,% time spent in LMA,MPTP-treated marmoset; [11],23%
same,LMA (% control),MPTP-treated marmoset; [11],70 % control
same,% time in head movements,MPTP-treated marmoset; [12],83%
same,% time spent in LMA,MPTP-treated marmoset; [12],29%
same,LMA (% control),MPTP-treated marmoset; [12],93 % control
same,% time in head movements,MPTP-treated marmoset; [13],84%
same,% time spent in LMA,MPTP-treated marmoset; [13],28%
same,LMA (% control),MPTP-treated marmoset; [13],103 % control
same,development of tolerance,"MPTP-treated marmoset; 0.1, 1.0 mg/kg s.c. twice daily for 7 days",no development of tolerance
same,motor behaviour,"MPTP-treated marmoset; MPTP marmosets, 0.05-1.0 mg/kg s.c., at 0.05 mg/kg 1 or 2 marmosets did not respond",fully restored normal motor behaviour
same,"movements in the limbs, trunk, head and neck","MPTP-treated marmoset; MPTP marmosets, s.c., most marked effect",full restoration of normal movements
same,MPTP-induced motor deficits,"MPTP-treated marmoset; oral, each of 0.1, 0.5 or 1.0 mg/kg, seven listed motor deficits",Partial reversal
same,response,"MPTP-treated marmoset; oral, highest dose 1.0 mg/kg, n=3",supramaximal
same,response,"MPTP-treated marmoset; oral, lowest dose 0.1 mg/kg, n=2",submaximal
same,emesis,"MPTP-treated marmoset; oral, the two lower doses (0.1, 0.5 mg/kg)",No emesis
same,locomotor activity,"[1]; 100 mg/kg, no stimulation",original inhibition was reversed
same,spontaneous locomotor activity,"[1]; 1.0 and 10.0 mg/kg i.p., statistically significant at 1.0 mg/kg",inhibition of spontaneous locomotor activity
same,stereotypy,"[2]; rat, 1.0, 10.0 and 100 mg/kg i.p., only periodic sniffing",no dose dependent stereotypies
same,spontaneous locomotion,"[2]; rat, 10.0 and 100.0 mg/kg i.p., P<0.001",dose-related increases in spontaneous locomotion
same,duration of increase in spontaneous locomotion,"[2]; rat, higher dose (100.0 mg/kg i.p.)",> 2.5 h
same,anti-depressant activity,[3]; 0.1-10 mg/kg i/p.,statistically significant (P<0.05) anti-depressant activity
same,anti-depressant activity compared with amitriptyline,[3]; amitriptyline 2.4-40 mg/kg i.p.,greater than amitriptyline
same,spontaneous locomotor activity,"[4]; photocell cages, 1.0 and 10.0 mg/kg i.p., statistically significant (P<0.01-0.001) at 10 mg/kg",inhibition of spontaneous locomotor activity
same,locomotor activity,"[4]; photocell test, 100 mg/kg, P<0.001",Stimulation of locomotor activity
same,locomotor activity,"[5]; treadwheel test, 100 mg/kg, P<0.001",Stimulation of locomotor activity
same,spontaneous locomotor activity,"[5]; treadwheels, 1.0 and 10.0 mg/kg i.p.",inhibition of spontaneous locomotor activity
same,stereotypy,"[6]; mouse, 1.0, 10.0 and 100 mg/kg i.p., only periodic sniffing",no dose dependent stereotypies
same,asymmetry and circling behaviour,"[7]; 0.01-10.0 μg unilaterally into caudate-putamen, statistically significant at 1.0 and 10.0 μg",marked contralateral asymmetry and circling behaviour
same,period in the black area,[8]; 0.1-10 mg/kg i.p.,correspondingly reduced period in the black area
same,time spent in the white section,[8]; 0.1-10 mg/kg i.p.,statistically significant increase in the time spent in the white section
same,spontaneous locomotion,"[9]; 1.0 μg into the nucleus accumbens, tendency to inhibition in first 10 minutes",ineffective
same,spontaneous locomotion,[9]; [14],marked (P<0.001) increase in spontaneous locomotion
"N[C@@H](Cc1ccc(O)c(O)c1)C(=O)O [L-DOPA, reference compound]",MPTP-induced motor deficits,"MPTP-treated marmoset; 12.5 mg/kg i.p. 30 min. pretreatment, after benserazide 12.5 mg/kg s.c. 90 min. pretreatment",restored MPTP-induced motor deficits
same,effectiveness compared with Compound A,"MPTP-treated marmoset; L-DOPA 12.5 mg/kg i.p. after benserazide 12.5 mg/kg s.c., versus 0.1 mg/kg s.c. Compound A",less effective than 0.1 mg/kg s.c. Compound A
"CC(C)C[C@H]1C(=O)N2CCC[C@H]2[C@]2(O)O[C@](NC(=O)[C@@H]3C=C4c5cccc6[nH]c(Br)c(c56)C[C@H]4N(C)C3)(C(C)C)C(=O)N12 [bromocriptine, reference compound]",MPTP-induced motor deficits,MPTP-treated marmoset; 0.1 mg/kg s.c.,little effect
same,swimming time,"[3]; 0.1-1 mg/kg i.p., effect at the higher dose",statistically significant reduction in swimming time
same,affinity for 5HT1 receptors,5HT1 receptors,showed affinity
same,investigatory activity in the black area,[8]; [15],statistically significant increase in investigatory activity in the black area
same,light aversion,[8]; [15],no change in the light aversion
"CN1CCc2cccc3c2[C@H]1Cc1ccc(O)c(O)c1-3 [apomorphine, reference compound]",stereotypy,"[2]; rat, 2.0 mg/kg s.c., continuous biting, gnawing and licking",marked stereotyped behaviour
same,dose profile of effect on locomotor activity,[4],biphasic activity
same,stereotypy,"[6]; mouse, 2.0 mg/kg s.c., continuous biting, gnawing and licking",marked stereotyped behaviour
same,asymmetry and circling behaviour,[7]; up to 50 μg unilaterally into caudate-putamen,inactive
"CC(N)Cc1ccccc1 (stereo not drawn) [amphetamine, reference compound]",stereotypy,"[2]; rat, doses up to 10.0 mg/kg i.p., continuous biting, gnawing and licking",marked stereotyped behaviour
same,dose profile of effect on locomotor activity,[4],biphasic activity
same,stereotypy,"[6]; mouse, doses up to 10.0 mg/kg i.p., continuous biting, gnawing and licking",marked stereotyped behaviour
same,asymmetry and circling behaviour,[7]; up to 100 μg unilaterally into caudate-putamen,inactive
same,spontaneous locomotion,[9]; [14],equally effective
